Consider one molecule from patent US7981443B2, “Method of treating sleep disordered breathing using topiramate” (priority 2000, dated 2011).

Series [1] concerns obstructive sleep apnoea (OSA). The series can be described thus: Double-blind, placebo controlled cross-over study of topiramate in patients with light to moderate OSA. It is filed as in vivo. As to the method:
A double-blind, placebo controlled cross-over study of topiramate was undertaken in 2 patients with light to moderate OSA (A/H index, 22 and 35 on previous screening). Topiramate (100 mg b.i.d or corresponding placebo) was administered for 10 days in each cross-over period. A wash-out period of one week was applied between the two treatment periods.

A further series has as its system carbonic anhydrase. Conditions: cited from earlier work.
Series [2] relates to aminohydroxymethylisoxazole propionic acid (AMPA) glutamate receptor subtype site. Conditions: rat hippocampal pyramidal neurones; effect at AMPA site; cited from earlier work.
Series [3] has as its system N-methyl-D-aspartate (NMDA) mediated glutamate receptor subtype site. The settings on record: cited from earlier work.
The test system of series [4] is voltage-gated sodium electrogenesis. Conditions: specific action on voltage-gated sodium electrogenesis in certain areas of the nervous system; cited from earlier work.
Series [5] has as its system glutamate in the hippocampus. Conditions: in vivo; cited from earlier work.

On to `CC1(C)O[C@@H]2[C@@H](CO[C@@]3(COS(N)(=O)=O)OC(C)(C)O[C@@H]23)O1` [topiramate, 2,3:4,5-di-o-isopropylidene-β-D-fructopyranose sulfamate], for which, in series [1] (between the two study nights (topiramate vs placebo)), the Blood pressure result is on record as “did not differ”. Also, the Side effects result in series [1] (during the study period) is recorded as “No side effects were reported”. Moreover, the “A/H index during topiramate” value in series [1] (first patient (placebo 24), 100 mg b.i.d for 10 days) was 9; in series [1] (second patient (placebo 33), 100 mg b.i.d for 10 days), 6. For the same molecule, in series [1] (spontaneous reporting by both patients, 100 mg b.i.d for 10 days), the Daytime sleepiness result was “markedly reduced”. Also, the “Inhibition of the enzyme carbonic anhydrase” value with carbonic anhydrase is given as “weakly inhibit”. In addition, the Kainate-elicited excitatory response entry in series [2] is listed as “blocked”. Besides, the “Effect at the NMDA mediated glutamate receptor subtype site” value in series [3] is recorded as “had no effect”. Further, in series [4], the “Cellular activity / cellular bursting activity” value is “dose-dependently reduce cellular activity”. In addition, the “Abnormally high concentrations of glutamate in the hippocampus” value in series [5] is “reduce”.
